Results on one molecule are retold here after ChEMBL document CHEMBL1150819, “Microxine, a new cdc2 kinase inhibitor from the Australian marine sponge Microxina species” (J Nat Prod, 2001).

Test [1] concerns A549. The test is described as follows: Cytotoxicity against human A549 cells at 18 uM. In kind it is functional, cell-based.
Test [2] addresses T1, M-phase inducer phosphatase 1 (Homo sapiens) (UniProt P30304).
T1 sequence (whole entry): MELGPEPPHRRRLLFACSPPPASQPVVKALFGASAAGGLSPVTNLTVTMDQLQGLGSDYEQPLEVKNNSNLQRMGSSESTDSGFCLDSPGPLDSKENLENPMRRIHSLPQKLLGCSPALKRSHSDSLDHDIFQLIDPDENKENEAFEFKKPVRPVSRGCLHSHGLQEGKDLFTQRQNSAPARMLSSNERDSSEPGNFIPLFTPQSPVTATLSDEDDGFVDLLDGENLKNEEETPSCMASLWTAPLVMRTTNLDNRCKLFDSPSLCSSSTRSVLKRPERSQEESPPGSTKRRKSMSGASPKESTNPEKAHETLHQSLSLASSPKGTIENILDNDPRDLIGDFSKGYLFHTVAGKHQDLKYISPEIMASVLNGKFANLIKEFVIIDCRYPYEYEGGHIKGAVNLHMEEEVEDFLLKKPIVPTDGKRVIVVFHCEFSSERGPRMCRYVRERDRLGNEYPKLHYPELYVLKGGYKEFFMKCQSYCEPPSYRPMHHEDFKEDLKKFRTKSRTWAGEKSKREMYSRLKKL
Put plainly: Inhibition of Cdc25a up to 10 uM.

The subject of test [3] is P388. The test is described as follows: Cytotoxicity against mouse P388 cells at 18 uM. It counts as functional, cell-based.
Test [4] deals with Cyclin-dependent kinase 1 (Homo sapiens, UniProt P06493).
Chain of Cyclin-dependent kinase 1 (P06493 whole entry): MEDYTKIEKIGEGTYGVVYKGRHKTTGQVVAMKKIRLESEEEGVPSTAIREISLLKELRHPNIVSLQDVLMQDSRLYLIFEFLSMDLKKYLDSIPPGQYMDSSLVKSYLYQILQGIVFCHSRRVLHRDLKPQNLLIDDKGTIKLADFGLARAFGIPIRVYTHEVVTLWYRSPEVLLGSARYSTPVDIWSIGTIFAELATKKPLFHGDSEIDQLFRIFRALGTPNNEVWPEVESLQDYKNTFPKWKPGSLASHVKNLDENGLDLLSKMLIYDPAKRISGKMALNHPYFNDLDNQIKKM

Calls of active or inactive are those of the source. The calls are words filed in the database; no cut-off is given here.

One may read the IC50 as the concentration needed to halve the response being measured. High values mean weaker potency in that assay, low ones greater potency in that assay. With `Cn1c(=O)[nH]c2ncnc(NCCS(=O)(=O)O)c21` [MICROXINE], the result in test [1], in test [2] and in test [3] was inactive. The molecule also gave an IC50 in test [4] of 13 µM.
